Reference: US10080812B2, “Radioactive iodine labeled pyrido[1,2-a]benzoimidazole derivative compound” (priority 2015, dated 2018)
Values joined by “and” are separate entries in the source; they are usually repeats but may differ in a detail not shown here. Equal values may be shown once.

Assays:
[1] = Comparison of intracerebral kinetics in mice; format: in vivo, ddY male mice; settings: for radioactivity in the brain: i.v. tail vein; for Brain2 min/60 min: ratio of radioactivity in the brain between 2 and 60 min after administration
Description: (§1) Each of [^125I]BIP-1 to -4 obtained by the method shown in Example 9 was diluted with saline containing 10 vol % ethanol and 0.1 vol % Tween 80. Each of [^125I]BIP-1 to -4 was administered to a group of 5-week-old ddY male mice (26 to 28 g; each group involved 5 mice) from the tail veins thereof at 25.0 to 37.5 kBq (100 μL) per mouse. After 2, 10, 30, or 60 minutes, the mice were slaughtered. After blood collection, the brains were taken out, and their weights and radioactivity were measured. As for [^125I]BIP-3, the principal organs were also excised, and their weights and radioactivity were measured.

[2] = molecular target: T1, amyloid β protein (Aβ) (Homo sapiens, UniProt P05067); test: In vitro autoradiography using autopsied brain tissue sections of an Alzheimer's disease patient (frontal lobe); format: binding; settings: for radioactivity accumulation in the frontal lobe section / binding affinity for the amyloid β protein (Aβ): AD brain section, 370 kBq/mL, 2 h room temperature
T1 construct: from tissue; host or cells: autopsied AD patient brain, frontal lobe, 6 µm paraffin sections (Graduate School of Medicine, Kyoto University)
T1 sequence (P05067 672-713 limits assumed): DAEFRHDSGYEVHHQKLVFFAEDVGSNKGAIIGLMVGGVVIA
Description: (§2) Autopsied brain tissue sections of an Alzheimer's disease (AD) patient (sections from a frontal lobe site and a temporal lobe site, 6 μm) were used, which were provided from Graduate School of Medicine, Kyoto University. Deparaffinization treatment was performed by washing with xylene (15 min×2), ethanol (1 min×2), a 90 vol % aqueous ethanol solution (1 min×1), an 80 vol % aqueous ethanol solution (1 min×1), a 70 vol % aqueous ethanol solution (1 min×1), and purified water (2.5 min×2). A 10 vol % or 50 vol % aqueous ethanol solution of each of [^125I]BIP-1 to -4 (370 kBq/mL) obtained by the method shown in Example 9 was added thereto, and the tissue sections were incubated at room temperature for 2 hours. The tissue sections were washed with a 50 vol % aqueous ethanol solution (2 hr×1), then exposed to an imaging plate (BAS-SR2025 manufactured by Fujifilm Corp.) for 12 hours, and analyzed using a bioimaging analyzer (bioimaging analyzer BAS-5000 manufactured by Fujifilm Corp.). Multi Gauge manufactured by Fujifilm Corp. was used in quantitative analysis.
Senile plaque (SP) and neurofibrillary tangle (NFT) were stained using sections near the brain sections used in autoradiography. An anti-Aβ1-42 monoclonal antibody (BC05, manufactured by Wako Pure Chemical Industries, Ltd.) was used as a primary antibody in the immunostaining of SP, and an anti-phosphorylated tau monoclonal antibody (AT8, manufactured by Thermo Fisher Scientific Inc.) was used as an antibody in the immunostaining of NFT. Deparaffinization treatment was performed by washing with xylene (15 min×2), ethanol (1 min×2), a 90 vol % aqueous ethanol solution (1 min×1), an 80 vol % aqueous ethanol solution (1 min×1), a 70 vol % aqueous ethanol solution (1 min×1), and purified water (2.5 min×2). The antigens were retrieved by autoclaving (15 min) in a 0.01 mol/L citrate buffer solution (pH 6.0) and formic acid treatment (5 min). The tissue sections were washed with running water (5 min) and then washed with PBS-Tween 20 (2 min×1). […]

[3] = tested on: tau; test: In vitro autoradiography using autopsied brain tissue sections of an Alzheimer's disease patient (temporal lobe); format: binding, human; settings: for radioactivity accumulation in the brain gray matter of the temporal lobe / binding affinity for tau: AD brain section, 370 kBq/mL, 2 h room temperature; for nonspecific binding to the brain white matter: AD brain sections; for autoradiography images compared with [125I]BIP-1 and [125I]BIP-2: temporal and frontal lobe sections
Description: as §2
Senile plaque (SP) and neurofibrillary tangle (NFT) were stained using sections near the brain sections used in autoradiography. An anti-Aβ1-42 monoclonal antibody (BC05, manufactured by Wako Pure Chemical Industries, Ltd.) was used as a primary antibody in the immunostaining of SP, and an anti-phosphorylated tau monoclonal antibody (AT8, manufactured by Thermo Fisher Scientific Inc.) was used as an antibody in the immunostaining of NFT. Deparaffinization treatment was performed by washing with xylene (15 min×2), ethanol (1 min×2), a 90 vol % aqueous ethanol solution (1 min×1), an 80 vol % aqueous ethanol solution (1 min×1), a 70 vol % aqueous ethanol solution (1 min×1), and purified water (2.5 min×2). The antigens were retrieved by autoclaving (15 min) in a 0.01 mol/L citrate buffer solution (pH 6.0) and formic acid treatment (5 min). The tissue sections were washed with running water (5 min) and then washed with PBS-Tween 20 (2 min×1). The tissue sections were reacted with primary antibody solutions at room temperature for 1 hour and then washed with PBS-Tween 20 (5 min×3). The tissue sections were reacted with Histofine Simple Stain MAX-PO (MULTI) (manufactured by Nichirei Biosciences Inc.) at room temperature for 30 minutes and then washed with PBS-Tween 20 (3 min×3) and TBS (5 min×1). Finally, the tissue sections were reacted with a DAB solution at room temperature for 1 minute. The tissue sections were washed with distilled water (1 min×1) to terminate the reaction. The brain tissue sections were mounted on slides and then observed under a microscope (BZ-9000 manufactured by Keyence Corporation).

[4] = Log P value measurement (1-octanol/phosphate buffer); format: physicochemical; settings: 1-octanol / 0.1 mol/L phosphate buffer solution pH 7.4
Description: Each of [^125I]BIP-1 to -4 (125 kBq) obtained by the method shown in Example 9 was added to a centrifuge tube containing 1-octanol (3.00 mL) and a 0.1 mol/L phosphate buffer solution (pH 7.4, 3.00 mL), vortexed for 2 minutes, and then centrifuged at 4,000×g for 10 minutes. 500 μL of a solution was collected from each layer, and the radioactivity thereof was then measured. A partition coefficient was determined from the 1-octanol/phosphate buffer solution ratio of radioactivity.

[5] = In vivo radioactivity distribution experiment; set-up: species or system ddY male mice; settings: mouse; for radioactivity in Blood / radioactivity in Brain / radioactivity in Heart / radioactivity in Intestine / radioactivity in Kidneys / radioactivity in Liver / radioactivity in Lungs / radioactivity in Pancreas / radioactivity in Spleen / radioactivity in Stomach / radioactivity in Thyroid gland: i.v.
Description: as §1

[6] = Stability evaluation in plasma; format: in vitro ADME, ddY mouse; settings: 37° C., 1 hour
Description: Blood was collected from the heart of a ddY mouse (5 weeks old, body weight: 25 to 28 g) under anesthesia with isoflurane. The collected blood was fractionated by centrifugation at 4000×g for 10 minutes to recover a supernatant. [^125I]BIP-3 obtained by the method shown in Example 9 (188 kBq, 10.0 μL, ethanol solution) and the mouse plasma sample (200 μL) were mixed. The mixture was incubated at 37° C. for 1 hour, and acetonitrile (400 μL) was added thereto, followed by fractionation by centrifugation at 4000×g for 10 minutes. The supernatant was recovered, treated with Cosmonice Filter (S) (0.45 μm, 4 mm) (Nacalai Tesque, Inc.), and then analyzed by reverse phase HPLC. Analytical conditions for HPLC were the same as the conditions used in Example 9.

[7] = mouse, 2 min after administration
[8] = mouse, 10 min after administration
[9] = mouse, 30 min after administration
[10] = mouse, 60 min after administration

[125I]c1ccc2c(c1)nc1cc(-c3ccccc3)ccn12 [[^125I]BIP-1, 7-[^125I]iodo-3-phenylbenzo[4,5]imidazo[1,2-a]pyridine]
radioactivity in the brain [1, 7]: 3.51 % ID/g
radioactivity in the brain [1, 8]: 2.14 % ID/g
radioactivity in the brain [1, 9]: 0.65 % ID/g
radioactivity in the brain [1, 10]: 0.23 % ID/g
Brain2 min/60 min [1]: 15.3
radioactivity accumulation in the frontal lobe section / binding affinity for the amyloid β protein (Aβ) [2]: low
radioactivity accumulation in the brain gray matter of the temporal lobe / binding affinity for tau ([3]; temporal lobe): have binding affinity for tau
nonspecific binding to the brain white matter [3]: low nonspecific binding
Log P [4]: 2.64

[125I]c1ccc2c(c1)nc1ccccn12 [[^125I]BIP-3, 7-[^125I]iodobenzo[4,5]imidazo[1,2-a]pyridine]
radioactivity in Blood ([5]; 2 min): 5.20 (0.44) % ID/g
radioactivity in Brain ([5]; 2 min): 4.74 (0.57) % ID/g
radioactivity in Heart ([5]; 2 min): 7.66 (1.21) % ID/g
radioactivity in Intestine ([5]; 2 min): 5.41 (0.62) % ID/g
radioactivity in Kidneys ([5]; 2 min): 23.7 % ID/g and 23.7 (2.44) % ID/g
radioactivity in Liver ([5]; 2 min): 19.9 % ID/g and 19.9 (1.39) % ID/g
radioactivity in Lungs ([5]; 2 min): 29.7 (4.63) % ID/g
radioactivity in Pancreas ([5]; 2 min): 5.36 (0.91) % ID/g
radioactivity in Spleen ([5]; 2 min): 4.76 (0.39) % ID/g
radioactivity in Stomach ([5]; 2 min): 2.70 (0.56) % ID
radioactivity in Thyroid gland ([5]; 2 min): 0.09 (0.03) % ID
radioactivity in Blood ([5]; 10 min): 2.94 (0.41) % ID/g
radioactivity in Brain ([5]; 10 min): 0.65 (0.07) % ID/g
radioactivity in Heart ([5]; 10 min): 1.66 (0.75) % ID/g
radioactivity in Intestine ([5]; 10 min): 11.6 (2.43) % ID/g
radioactivity in Kidneys ([5]; 10 min): 12.2 (1.55) % ID/g
radioactivity in Liver ([5]; 10 min): 14.4 (2.14) % ID/g
radioactivity in Lungs ([5]; 10 min): 6.32 (1.16) % ID/g
radioactivity in Pancreas ([5]; 10 min): 1.49 (0.47) % ID/g
radioactivity in Spleen ([5]; 10 min): 1.34 (0.28) % ID/g
radioactivity in Stomach ([5]; 10 min): 6.73 (1.64) % ID
radioactivity in Thyroid gland ([5]; 10 min): 0.06 (0.02) % ID
radioactivity in Blood ([5]; 30 min): 1.30 (0.16) % ID/g
radioactivity in Brain ([5]; 30 min): 0.12 (0.01) % ID/g
radioactivity in Heart ([5]; 30 min): 0.97 (0.26) % ID/g
radioactivity in Intestine ([5]; 30 min): 21.4 (5.69) % ID/g
radioactivity in Kidneys ([5]; 30 min): 10.3 (5.11) % ID/g
radioactivity in Liver ([5]; 30 min): 6.29 (0.45) % ID/g
radioactivity in Lungs ([5]; 30 min): 1.91 (0.29) % ID/g
radioactivity in Pancreas ([5]; 30 min): 0.78 (0.47) % ID/g
radioactivity in Spleen ([5]; 30 min): 0.58 (0.16) % ID/g
radioactivity in Stomach ([5]; 30 min): 5.34 (1.26) % ID
radioactivity in Thyroid gland ([5]; 30 min): 0.13 (0.03) % ID
radioactivity in Blood ([5]; 60 min): 1.11 (0.53) % ID/g
radioactivity in Brain ([5]; 60 min): 0.06 (0.01) % ID/g
radioactivity in Heart ([5]; 60 min): 0.83 (0.24) % ID/g
radioactivity in Intestine ([5]; 60 min): 29.4 % ID/g and 29.4 (7.49) % ID/g
radioactivity in Kidneys ([5]; 60 min): 8.99 (4.47) % ID/g
radioactivity in Liver ([5]; 60 min): 5.25 (0.95) % ID/g
radioactivity in Lungs ([5]; 60 min): 1.45 (0.23) % ID/g
radioactivity in Pancreas ([5]; 60 min): 0.75 (0.30) % ID/g
radioactivity in Spleen ([5]; 60 min): 0.71 (0.11) % ID/g
radioactivity in Stomach ([5]; 60 min): 4.42 (2.43) % ID
radioactivity in Thyroid gland ([5]; 60 min): 0.22 % ID and 0.22 (0.03) % ID
deiodination in living body (from thyroid gland uptake) ([5]; up to 60 min after administration): marked deiodination does not occur
radioactivity in the brain [1, 7]: 4.74 % ID/g
radioactivity in the brain [1, 8]: 0.65 % ID/g
radioactivity in the brain [1, 9]: 0.12 % ID/g
radioactivity in the brain [1, 10]: 0.06 % ID/g
intracerebral kinetics ([1]; mouse, i.v., 2-60 min): favorable intracerebral kinetics
Brain2 min/60 min [1]: 79.0
stability in mouse plasma (reverse phase HPLC) [6]: only the peak of the parent compound was detected
radioactivity accumulation to the frontal lobe (quantitative analysis) ([2]; frontal lobe sites a-d, only Aβ accumulates): low radioactivity accumulation
autoradiography images compared with [125I]BIP-1 and [125I]BIP-2 [3]: images equivalent to [^125I]BIP-1 and [^125I]BIP-2
radioactivity accumulation to the temporal lobe (quantitative analysis) ([3]; temporal lobe sites e-j, compared with frontal lobe): higher radioactivity accumulation
radioactivity accumulation on temporal lobe section compared with immunostaining of tau and Aβ ([3]; temporal lobe, AT8 and BC05 immunostaining): consistent with the accumulation of tau
Log P [4]: 3.22

[125I]c1ccc(-c2ccn3c(c2)nc2ccccc23)cc1 [[^125I]BIP-2, 3-(4-[^125I]iodophenyl)benzo[4,5]imidazo[1,2-a]pyridine]
radioactivity in the brain [1, 7]: 2.73 % ID/g
radioactivity in the brain [1, 8]: 1.73 % ID/g
radioactivity in the brain [1, 9]: 0.57 % ID/g
radioactivity in the brain [1, 10]: 0.26 % ID/g
Brain2 min/60 min [1]: 10.4
radioactivity accumulation in the frontal lobe section / binding affinity for the amyloid β protein (Aβ) [2]: low
radioactivity accumulation in the brain gray matter of the temporal lobe / binding affinity for tau ([3]; temporal lobe): have binding affinity for tau
nonspecific binding to the brain white matter [3]: low nonspecific binding
Log P [4]: 2.61

[125I]c1ccn2c(c1)nc1ccccc12 [[^125I]BIP-4, 3-[^125I]iodobenzo[4,5]imidazo[1,2-a]pyridine]
radioactivity in the brain [1, 7]: 2.37 % ID/g
radioactivity in the brain [1, 8]: 0.36 % ID/g
radioactivity in the brain [1, 9]: 0.09 % ID/g
radioactivity in the brain [1, 10]: 0.06 % ID/g
Brain2 min/60 min [1]: 39.5
autoradiography images compared with [125I]BIP-1 and [125I]BIP-2 [3]: images equivalent to [^125I]BIP-1 and [^125I]BIP-2
Log P [4]: 2.35
